Test results taken from patent US9527859B2, “Amidopyridine derivative and use thereof” (Mitsubishi Tanabe Pharma Corporation, priority 2012, dated 2016).

tested on: production of IL-17 in mouse splenocytes stimulated by recombinant mouse interleukin-23; assay: Production of IL-17 induced when mouse splenocytes were stimulated by rm-IL-23 (ELISA); assay type: cell-based; details: Splenocyte, inhibition of IL-17 production, rm-IL-23 1 nmol/L, 72 hours
Protocol: Effect on Production of IL-17 Induced when Mouse Splenocytes were Stimulated by Recombinant Mouse Interleukin-23 (rm-IL-23)
RPMI1640 media (Sigma-Aldrich) were used as a medium, to which 50 units/mL penicillin G potassium/50 μg/mL streptomycin (Gibco) and […] 2-mercaptoethanol (Sigma-Aldrich) were added, and then thereto was added 10% of fetal calf serum (FCS; Cell Culture Technology) which was treated at 56° C. for 30 minutes to be inactivated, and the mixture was used in the Test. The test compound was dissolved in dimethylsulfoxide and then diluted with 10% FCS-containing RPMI1640 medium to a desired concentration to be used. The spleens were aseptically taken out from 6 to 7 week-old male DBA/1J mice (Charles River Japan, Inc.) and a single cell suspension of splenocytes was prepared, which was hemolyzed by hypotonic treatment with a mixed solution of 0.83% aqueous solution of ammonium chloride and Tris-HCl buffer of pH 7.65 (9:1). A cell suspension prepared by using 10% FCS-containing RPMI1640 medium was added to a flat-bottomed 96 well microtestplate (Coaster) at 2×10^5 cells/well. Thereto were added test compounds and rm-IL-23 (R&D systems) were diluted with a medium to 1 to 1,000 nmol/L and 1 nmol/L of the final concentration, respectively, and the mixture was cultured at 37° C., 5% carbon dioxide and 95% air for 72 hours. After completion of the culture, culture supernatant was sampled and production amounts of IL-17 therein were determined by ELISA method. After sampling the supernatant, WST-8 (Seikagaku Corporation) was added at 10 μl/well and cultured at 37° C., 5% carbon dioxide and 95% air for 4 hours. Then, absorbance (O.D.: Optical Density) at 450 nm was measured by a microplate reader and the value was adopted as an index of cell survivability. An inhibition rate was calculated according to the following formula on the basis of an average of production amounts of IL-17 and O.D. values of the well containing a test compound of each concentration. Inhibition (%)=(1−(Average value of well with addition of test compound)/(Average value of well without addition of test compound))×100
Based on the dose-response curve obtained by plotting the inhibition rate in the longitudinal axis and the concentration in the horizontal axis, the concentration of the compound which inhibits the level to 50% of the value of the control group (IC50) (nmol/L) was determined by linear regression analysis.

Question: How did the IC50 turn out when `COCCC1CCN(c2ncc(NC(=O)c3cnn(-c4ccc(C(F)(F)F)cn4)c3C)cc2C)CC1` [Example 31] was run?
Answer: The IC50 was 0.158 µM.

Question: `Cc1cc(NC(=O)c2cnn(-c3ccc(Cl)cn3)c2C)cnc1N1CCC(C(C)(C)F)CC1` [Example 38, 1-(5-chloropyridin-2-yl)-N-{6-[4-(1-fluoro-1-methylethyl)piperidin-1-yl]-5-methylpyridin-3-yl}-5-methyl-1H-pyrazole-4-carboxamide] was tested. Which IC50 did it give?
Answer: The IC50 was 0.14 µM.

Question: With `COCC1CCN(c2ncc(NC(=O)c3cnn(-c4ccc(C(F)(F)F)cc4)c3C)cc2C)CC1` [Example 33, N-{6-[4-(1-methoxymethyl)piperidin-1-yl]-5-methylpyridin-3-yl}-5-methyl-1-[4-(trifluoromethyl)phenyl]-1H-pyrazole-4-carboxamide] as the molecule, how does the IC50 read?
Answer: The IC50 was 0.153 µM.

Question: Which IC50 does the source give for `Cc1c(C(=O)Nc2cnc(N3CCC(CCO)CC3)c(C#N)c2)cnn1-c1ccc(F)cc1` [Example 30, N-{5-cyano-6-[4-(2-hydroxyethyl)piperidin-1-yl]pyridin-3-yl}-1-(4-fluorophenyl)-5-methyl-1H-pyrazole-4-carboxamide] here?
Answer: Its IC50 is 0.175 µM.

Question: With `CC(=O)OCCC1CCN(c2ncc(NC(=O)c3cnn(-c4ccc(F)cc4)c3C)cc2C#N)CC1` [Example 25, acetic acid [2-(1-{3-cyano-5-[1-(4-fluorophenyl)-5-methyl-1H-pyrazole-4-carboxamide]pyridin-2-yl}piperidin-4-yl)ethyl]ester] as the molecule, how does the IC50 read?
Answer: The IC50 was 0.161 µM.

Question: For `Cc1c(C(=O)Nc2cnc(N3CCC(=O)CC3)c(C#N)c2)cnn1-c1ccc(Cl)cc1` [Example 29, 1-(4-chlorophenyl)-N-[5-cyano-6-(4-oxopiperidin-1-yl)pyridin-3-yl]-5-methyl-1H-pyrazole-4-carboxamide], which IC50 is on record?
Answer: Its IC50 is 0.168 µM.

Question: For `Cc1c(C(=O)Nc2cnc(N3CCC(CCO)CC3)c(C3CC3)c2)cnn1-c1ccc(Cl)cc1` [Example 42, 1-(4-chlorophenyl)-N-{5-cyclopropyl-6-[4-(2-hydroxyethyl)piperidin-1-yl]pyridin-3-yl}-5-methyl-1H-pyrazole-4-carboxamide], which IC50 is on record?
Answer: The IC50 was 0.106 µM.

Question: With `Cc1cc(NC(=O)c2cnn(-c3ncc(Cl)cc3Cl)c2C)cnc1N1CCC(C(C)(C)O)CC1` [Example 59, 1-(3,5-dichloropyridin-2-yl)-N-{6-[4-(1-hydroxy-1-methylethyl)piperidin-1-yl]-5-methylpyridin-3-yl}-5-methyl-1H-pyrazole-4-carboxamide] as the molecule, how does the IC50 read?
Answer: The IC50 was 0.0318 µM.

Question: `Cc1c(C(=O)Nc2cnc(N3CCC(CCO)CC3)c(Cl)c2)cnn1-c1ccc(Cl)cc1` [Example 74, N-{5-chloro-6-[4-(2-hydroxyethyl)piperidin-1-yl]pyridin-3-yl}-1-(4-chlorophenyl)-5-methyl-1H-pyrazole-4-carboxamide] was tested. Which IC50 did it give?
Answer: Its IC50 is 0.0877 µM.

Question: How did the IC50 turn out when `Cc1cc(NC(=O)c2cnn(-c3ccc(C(F)(F)F)cc3)c2C)cnc1N1CCC(C(C)(C)O)CC1` [Example 61, N-{6-[4-(1-hydroxy-1-methylethyl)piperidin-1-yl]-5-methylpyridin-3-yl}-5-methyl-1-[4-(trifluoromethyl)phenyl]-1H-pyrazole-4-carboxamide] was run?
Answer: The IC50 was 0.0194 µM.

Question: For `CC(=O)OCCC1CCN(c2ncc(NC(=O)c3cnn(-c4ccc(Cl)cc4)c3C)cc2C#N)CC1` [Example 40, acetic acid [2-(1-{5-[1-(4-chlorophenyl)-5-methyl-1H-pyrazole-4-carboxamide]-3-cyanopyridin-2-yl}piperidin-4-yl)ethyl]ester], which IC50 is on record?
Answer: Its IC50 is 0.116 µM.

Question: How did the IC50 turn out when `N#Cc1cc(NC(=O)c2cnn(-c3ccc(Cl)cc3)c2C2CC2)cnc1N1CCC(CCO)CC1` [Example 22, 1-(4-chlorophenyl)-N-{5-cyano-6-[4-(2-hydroxyethyl)piperidin-1-yl]pyridin-3-yl}-5-cyclopropyl-1H-pyrazole-4-carboxamide] was run?
Answer: Its IC50 is 0.194 µM.

Question: `Cc1cc(NC(=O)c2cnn(-c3ccccn3)c2C)cnc1N1CCC(CC(C)(C)O)CC1` [Example 26, N-{6-[4-(2-hydroxy-2-methylpropyl)piperidin-1-yl]-5-methylpyridin-3-yl}-5-methyl-1-(pyridin-2-yl)-1H-pyrazole-4-carboxamide] was tested. Which IC50 did it give?
Answer: Its IC50 is 0.173 µM.

Question: With `Cc1cc(NC(=O)c2cnn(-c3ccc(Cl)cc3)n2)cnc1N1CCC(C(C)(C)O)CC1` [Example 85, 2-(4-chlorophenyl)-N-{6-[4-(1-hydroxy-1-methylethyl)piperidin-1-yl]-5-methylpyridin-3-yl}-2H-[1,2,3]triazole-4-carboxamide] as the molecule, how does the IC50 read?
Answer: Its IC50 is 0.0676 µM.

Question: How did the IC50 turn out when `Cc1c(C(=O)Nc2cnc(N3CCC(O)CC3)c(C3CC3)c2)cnn1-c1ccc(Cl)cc1Cl` [Example 9, N-[5-cyclopropyl-6-(4-hydroxypiperidin-1-yl)pyridin-3-yl]-1-(2,4-dichlorophenyl)-5-methyl-1H-pyrazole-4-carboxamide] was run?
Answer: The IC50 was 0.331 µM.

Question: Which IC50 does the source give for `Cc1cc(NC(=O)c2cnn(-c3ccc(F)cc3)c2C)cnc1N1CCC(C(C)O)CC1` (stereo not drawn) [Example 28, 1-(4-fluorophenyl)-N-{6-[4-(1-hydroxyethyl)piperidin-1-yl]-5-methylpyridin-3-yl}-5-methyl-1H-pyrazole-4-carboxamide] here?
Answer: The IC50 was 0.17 µM.

Question: `Cc1c(C(=O)Nc2cnc(N3CCC(CCO)CC3)c(C#N)c2)cnn1-c1ccc(Cl)cc1` [Example 51, 1-(4-chlorophenyl)-N-{5-cyano-6-[4-(2-hydroxyethyl)piperidin-1-yl]pyridin-3-yl}-5-methyl-1H-pyrazole-4-carboxamide] was tested. Which IC50 did it give?
Answer: Its IC50 is 0.0535 µM.

Question: Which IC50 does the source give for `N#Cc1cc(NC(=O)c2ccn(-c3ccc(F)cc3)c2)cnc1N1CCC(CCO)CC1` [Example 37, N-{5-cyano-6-[4-(2-hydroxyethyl)piperidin-1-yl]pyridin-3-yl}-1-(4-fluorophenyl)-1H-pyrrole-3-carboxamide] here?
Answer: The IC50 was 0.14 µM.

Question: `COc1ccc(-n2ncc(C(=O)Nc3cnc(N4CCC(C(C)(C)F)CC4)c(C)c3)c2C)cc1` [Example 35, N-{6-[4-(1-fluoro-1-methylethyl)piperidin-1-yl]-5-methylpyridin-3-yl}-1-(4-methoxyphenyl)-5-methyl-1H-pyrazole-4-carboxamide] was tested. Which IC50 did it give?
Answer: Its IC50 is 0.15 µM.

Question: Which IC50 does the source give for `Cc1c(C(=O)Nc2cnc(N3CCC(O)CC3)c(C#N)c2)cnn1-c1ccc(C(C)(C)C)cc1` [Example 23, 1-(4-tert-butylphenyl)-N-[5-cyano-6-(4-hydroxypiperidin-1-yl)pyridin-3-yl]-5-methyl-1H-pyrazole-4-carboxamide] here?
Answer: The IC50 was 0.193 µM.

Question: Which IC50 does the source give for `Cc1cc(NC(=O)c2cnn(-c3ccc(C(F)(F)F)cc3)c2C)cnc1N1CCC(O)CC1` [Example 15, N-[6-(4-hydroxypiperidin-1-yl)-5-methylpyridin-3-yl]-5-methyl-1-[4-(trifluoromethyl)phenyl]-1H-pyrazole-4-carboxamide] here?
Answer: The IC50 was 0.293 µM.

Question: With `COC1CCN(c2ncc(NC(=O)c3cnn(-c4ccc(Cl)cc4)c3C)cc2C)CC1` [Example 16, 1-(4-chlorophenyl)-N-[6-(4-methoxypiperidin-1-yl)-5-methylpyridin-3-yl]-5-methyl-1H-pyrazole-4-carboxamide] as the molecule, how does the IC50 read?
Answer: The IC50 was 0.264 µM.

Question: Which IC50 does the source give for `Cc1ccc(-n2ncc(C(=O)Nc3cnc(N4CCC(C(C)(C)O)CC4)c(C)c3)c2C)cc1` [Example 56, N-{6-[4-(1-hydroxy-1-methylethyl)piperidin-1-yl]-5-methylpyridin-3-yl}-5-methyl-1-(4-methylphenyl)-1H-pyrazole-4-carboxamide] here?
Answer: Its IC50 is 0.0444 µM.

Question: How did the IC50 turn out when `Cc1ccc(-n2ncc(C(=O)Nc3cnc(N4CCC(CC(C)(C)O)CC4)c(C)c3)c2C)nc1` [Example 57, N-{6-[4-(2-hydroxy-2-methylpropyl)piperidin-1-yl]-5-methylpyridin-3-yl}-5-methyl-1-(5-methylpyridin-2-yl)-1H-pyrazole-4-carboxamide] was run?
Answer: Its IC50 is 0.0367 µM.

Question: Which IC50 does the source give for `Cc1cc(NC(=O)c2c[nH]c(-c3ccc(C(F)(F)F)cc3)n2)cnc1N1CCC(C(C)(C)O)CC1` [Example 75, N-{6-[4-(1-hydroxy-1-methylethyl)piperidin-1-yl]-5-methylpyridin-3-yl}-2-[4-(trifluoromethyl)phenyl]-1H-imidazole-4-carboxamide] here?
Answer: The IC50 was 0.109 µM.

Question: How did the IC50 turn out when `Cc1cc(NC(=O)c2cnn(-c3ccc(C(F)(F)F)cn3)c2C)cnc1N1CCC(CC(C)(C)O)CC1` [Example 65, N-{6-[4-(2-hydroxy-2-methylpropyl)piperidin-1-yl]-5-methylpyridin-3-yl}-5-methyl-1-[5-(trifluoromethyl)pyridin-2-yl]-1H-pyrazole-4-carboxamide] was run?
Answer: Its IC50 is 0.00535 µM.

Question: With `Cc1cc(NC(=O)c2cnn(-c3ccc(Cl)cn3)c2C)cnc1N1CCC(C(C)(C)O)CC1` [Example 58, 1-(5-chloropyridin-2-yl)-N-{6-[4-(1-hydroxy-1-methylethyl)piperidin-1-yl]-5-methylpyridin-3-yl}-5-methyl-1H-pyrazole-4-carboxamide] as the molecule, how does the IC50 read?
Answer: The IC50 was 0.033 µM.
